Results: publication PMC5766233, “Ternary copper(II) complex: NCI60 screening, toxicity studies, and evaluation of efficacy in xenograft models of nasopharyngeal carcinoma” (PLoS ONE, 2018)

Key:
[1] = test system: BGC823 (gastric cancer cells) xenograft; parameters: method as in earlier work; conditions: cited from earlier work
CYP1A = experiment: Cytochrome P450 induction assay in rat primary hepatocytes, CYP1A; type: in vitro ADME; conditions: 1.0 μM, 3 days
Excerpt: %Activity=(averagearearatiooftreated/averagearearatioofbasalcontrol)x100

NCI leukemia cell lines = conditions: cited from earlier work
[2] = Cytotoxicity in rat primary hepatocytes (resazurin); conditions: male, Wistar, rat, freshly isolated rat primary hepatocytes
[3] = test system: NCI60 human cancer cell line panel; conditions: ref cisplatin NSC number 119875; cited from earlier work

For [Ru(dmb)2(salH)]PF6, the “toxicity compared to cisplatin” value ([1]; 5 mg/kg) is listed as “insignificant nephrotoxicity and nephrotoxicity” and the xenograft growth ([1]; 5 mg/kg) is listed as “significantly suppressed”.
In the case of Cc1ccc2cc3c(ccc4ccccc43)c3c2c1CC3 [3-Methyl cholanthrene, reference compound], the “Fold induction CYP1A” value (CYP1A) was 10.9 and the fold induction at 3 days, 1 µM (CYP1A; rat, rat primary hepatocytes, probe phenacetin (100 μM in HBSS)) was over 10.
In the case of O=C([O-])c1ccccc1C(=O)[O-].[Cu+2].c1cnc2c(c1)ccc1cccnc12 [[Cu(o-phthalate)(phenanthroline)]], the “sensitivity of most NCI leukemia cell lines” value (NCI leukemia cell lines) is listed as “resistant”.
In the case of CC/C(=C(\c1ccccc1)c1ccc(OCCN(C)C)cc1)c1ccccc1 [Tamoxifen, reference compound], the IC50 at 72 h [2] was 5.1 µM.
In the case of N.N.[Cl][Pt][Cl] [cisplatin], the GI50 [3] is given as 1.49 µM, the organ damage ([1]; 4 mg/kg) is given as “considerable damage to liver and kidney” and the “xenograft growth, compared with [Ru(dmb)2(salH)]PF6” value ([1]; 4 mg/kg) is given as “slightly less effective”.
